This assay deals with T1, TRPC5 (Homo sapiens, UniProt Q9UL62).
T1 construct: expressed in transfected cells; host or cells: HEK293 TREx cells, inducible TRPC5 expression, induced 20-48 hours
T1 sequence (Q9UL62 1-973): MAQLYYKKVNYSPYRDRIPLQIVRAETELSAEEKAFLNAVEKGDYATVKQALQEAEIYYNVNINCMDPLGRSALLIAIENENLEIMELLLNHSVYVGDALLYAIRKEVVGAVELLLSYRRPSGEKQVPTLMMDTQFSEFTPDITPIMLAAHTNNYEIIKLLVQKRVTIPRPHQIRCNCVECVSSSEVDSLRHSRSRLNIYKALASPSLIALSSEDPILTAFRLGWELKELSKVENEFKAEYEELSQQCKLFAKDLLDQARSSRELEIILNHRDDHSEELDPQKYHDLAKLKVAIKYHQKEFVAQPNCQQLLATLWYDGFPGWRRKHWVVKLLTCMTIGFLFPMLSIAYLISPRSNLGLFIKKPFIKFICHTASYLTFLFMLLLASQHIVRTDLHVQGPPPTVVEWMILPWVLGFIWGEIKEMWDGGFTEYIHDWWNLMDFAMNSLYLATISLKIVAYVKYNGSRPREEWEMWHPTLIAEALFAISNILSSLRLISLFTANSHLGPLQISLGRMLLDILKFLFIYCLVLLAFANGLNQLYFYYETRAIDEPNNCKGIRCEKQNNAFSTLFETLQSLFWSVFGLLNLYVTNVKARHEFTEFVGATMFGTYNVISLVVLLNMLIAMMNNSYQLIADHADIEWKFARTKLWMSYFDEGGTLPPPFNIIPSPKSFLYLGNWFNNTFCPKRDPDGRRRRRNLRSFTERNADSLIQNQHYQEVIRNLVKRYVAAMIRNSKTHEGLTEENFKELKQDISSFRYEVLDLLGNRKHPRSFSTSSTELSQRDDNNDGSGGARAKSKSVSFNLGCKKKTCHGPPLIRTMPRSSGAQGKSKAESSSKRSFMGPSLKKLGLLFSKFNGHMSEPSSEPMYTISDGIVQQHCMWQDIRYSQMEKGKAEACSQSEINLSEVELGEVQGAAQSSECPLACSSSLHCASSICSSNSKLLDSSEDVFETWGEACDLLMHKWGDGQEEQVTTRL
The assay is described as follows: Assay A: Determination of TRPC5-Inhibition (whole-cell patch clamp). The format is cell-based. Particulars: compounds of the present invention, TRPC5-expressing HEK293 TREx cells, LaCl3-activated current. The source says:
Assay A: Determination of TRPC5-Inhibition
Patch clamp experiments permit the detection of currents through the TRPC5 channel in a cell line. In normal whole-cell patch clamp recordings, a glass electrode is brought into contact with a single cell and a high-resistance (gigaohm) seal is established with the cell membrane. The membrane is then ruptured to achieve the whole-cell configuration, permitting control of the voltage of the cell membrane and measurement of currents flowing across the membrane using the amplifier attached to the electrode and resulting in the replacement of cytoplasm with the pipette solution. A perfusion system permits control of the extracellular solution, including the addition of blockers and activators of the current. The current can be activated by including 1.4 μM free Ca2+ in the pipette (intracellular) solution, and 80 μM LaCl3 in the extracellular solution.
TRPC5 cells were induced 20-48 hours, removed from growth plates, and replated at low density (to attain good single-cell physical separation) on glass coverslips for measurement. In some cases, cells were grown in low density overnight on glass coverslips. Patch clamp recordings were made in the whole-cell mode with a holding potential of −40 mV. Every 5 seconds, a voltage ramp was applied from −120 to +100 mV, 400 ms in duration. Currents elicited were quantified at −80 mV and +80 mV. The internal solution consisted of 140 mM cesium aspartate, 10 mM HEDTA, 2 mM CaCl2, 2.27 mM MgCl2 and 10 mM HEPES, pH 7.2, with 1,400 nM calculated free Ca2+. The external solution consisted of 150 mM NaCl, 4.5 mM 15 KCl, 1 mM MgCl2, 2 mM CaCl2, 10 mM HEPES, 10 mM glucose, 1 mM EGTA, pH 7.4. Upon addition of LaCl3, TRPC5 current was induced only in TRPC5-expressing cells and not in parental HEK293 TREx cells. Removal of the LaCh stimulus causes most of the current to go away. Potential blockers were tested for ability to block both inward and outward currents in the continued presence of LaCl3.
IC50 of a compound of the invention was estimated by testing the compound 500 nM. […] Compounds blocking 50% or more at 500 nM are retested at multiple concentrations, and the % block is fitted by standard equations to determine IC50 accurately, using a 5/6 point concentration-response experiment.
For orientation: In patch-clamp work, channel activity is measured electrically.
The IC50 is the concentration at which inhibition is half-maximal. A lower IC50 goes with greater potency. For the compound `CCn1c(=O)n(CCCO)c(=O)c2c1nc(-c1ccc(O[C@H]3CCC[C@@H]3C)nc1C)n2Cc1ccc(Cl)cc1` (racemic) [Example 21], the IC50 came out at 0.249 nM.
With `Cc1nc(OC2CCC2C)ccc1-c1nc2c(c(=O)n(CCCO)c(=O)n2C(C)C)n1Cc1ccc(F)cc1` (stereo not drawn) [Example 1] the figure was less than 0.032 nM.
With `Cc1nc(OC2CCCCC2)ccc1-c1nc2c(c(=O)n(CCCO)c(=O)n2C(C)C)n1Cc1ccccc1` [Example 2] the figure was 0.095 nM.
`CCn1c(=O)n(CCCO)c(=O)c2c1nc(-c1ccc(OC3CCC3C)nc1C)n2Cc1ccc(Cl)cc1` (stereo not drawn) [Example 3] showed an IC50 of 0.099 nM.
With `Cc1nc(OC2CCCC2)ccc1-c1nc2c(c(=O)n(CCCO)c(=O)n2C(C)C)n1Cc1ccc(F)cc1` [Example 4] the figure was less than 0.1 nM.
As to `Cc1nc(OC2CC(C)C2)ccc1-c1nc2c(c(=O)n(CCCO)c(=O)n2C(C)C)n1Cc1ccc(F)cc1` (stereo not drawn) [Example 5], the IC50 was less than 0.1 nM.
As for `Cc1nc(OC2CCC23CCC3)ccc1-c1nc2c(c(=O)n(CCCO)c(=O)n2C(C)C)n1Cc1ccccc1` (stereo not drawn) [Example 6], the IC50 was less than 0.1 nM.
With `CCn1c(=O)n(CCCO)c(=O)c2c1nc(-c1ccc(OC3CC4CCC3C4)nc1C)n2Cc1ccc(F)cc1` (stereo not drawn) [Example 7] the figure was 0.104 nM.
The value for `Cc1nc(OC2CCCC2)ccc1-c1nc2c(c(=O)n(CCCO)c(=O)n2C(C)C)n1Cc1ccccc1` [Example 9] was 0.13 nM; that for `CCn1c(=O)n(CCCO)c(=O)c2c1nc(-c1ccc(OC3CCC3C)nc1C(F)(F)F)n2Cc1ccc(Cl)cc1` (stereo not drawn) [Example 10] was 0.15 nM; that for `CCn1c(=O)n(CCCO)c(=O)c2c1nc(-c1ccc(OC3CCC3(C)C)nc1C)n2Cc1ccc(F)cc1` (stereo not drawn) [Example 11] was 0.163 nM.
The value for `CCn1c(=O)n(CCCO)c(=O)c2c1nc(-c1ccc(OC3CCC3C)nc1C(F)(F)F)n2Cc1ccccc1` (stereo not drawn) [Example 12] was 0.171 nM; that for `CCn1c(=O)n(CCCO)c(=O)c2c1nc(-c1cc(F)c(OC3CCC3)nc1C)n2Cc1ccc(F)cc1` [Example 13] was 0.174 nM.
In the case of `CCn1c(=O)n(CCCO)c(=O)c2c1nc(-c1ccc(OC3CCC3C)nc1C)n2Cc1ccc(Br)cc1` (stereo not drawn) [Example 14], the IC50 was 0.178 nM.
`CCn1c(=O)n(CCCO)c(=O)c2c1nc(-c1ccc(OC3CCC3C)nc1C(F)(F)F)n2Cc1ccc(F)cc1` (stereo not drawn) [Example 15] yielded an IC50 of 0.184 nM.
With `Cc1nc(OC2CCC2)ccc1-c1nc2c(c(=O)n(CCCO)c(=O)n2C2CCC2)n1Cc1ccccc1` [Example 16] the figure was 0.19 nM.
The compound `CCn1c(=O)n(CCCO)c(=O)c2c1nc(-c1ccc(OC3CC(C)C3)nc1C)n2Cc1ccc(Cl)cc1` (stereo not drawn) [Example 17] showed an IC50 of 0.199 nM.
Take `CCn1c(=O)n(CCCO)c(=O)c2c1nc(-c1ccc(OC3CC(C)C3)nc1C)n2Cc1ccc(F)cc1` (stereo not drawn) [Example 18]: the IC50 stood at 0.207 nM.
With `Cc1nc(OC2CCC2C)ccc1-c1nc2c(c(=O)n(CCCO)c(=O)n2C(C)C)n1Cc1ccccc1` (stereo not drawn) [Example 19] the figure was 0.236 nM.
The value for `CCC(C)n1c(=O)n(CCCO)c(=O)c2c1nc(-c1ccc(OC3CC(C)C3)nc1C)n2Cc1ccccc1` (stereo not drawn) [Example 20] was 0.246 nM.
With `Cc1nc(OC2CC=CC2)ccc1-c1nc2c(c(=O)n(CCCO)c(=O)n2C(C)C)n1Cc1ccccc1` [Example 22] the figure was 0.265 nM.
Compound `CCn1c(=O)n(CCCO)c(=O)c2c1nc(-c1ccc(OC3CCCC3)nc1C)n2Cc1ccc(Cl)cc1` [Example 23] displayed an IC50 of 0.275 nM.
With `CCn1c(=O)n(CCCO)c(=O)c2c1nc(-c1ccc(OC3CC(C)(C)C3)nc1C)n2Cc1ccc(F)cc1` [Example 24] the figure was 0.281 nM; with `Cc1nc(OC2CC(F)(F)C2)ccc1-c1nc2c(c(=O)n(CCCO)c(=O)n2C(C)C)n1Cc1ccc(F)cc1` [Example 25], 0.312 nM; with `Cc1nc(OC2CC(C)C2)ccc1-c1nc2c(c(=O)n(CCCO)c(=O)n2C(C)C)n1Cc1ccccc1` (stereo not drawn) [Example 26], less than 0.32 nM.
The value for `CCn1c(=O)n(CCCO)c(=O)c2c1nc(-c1ccc(O[C@H]3C[C@@H](C)C3)nc1C)n2Cc1ccccc1` [Example 27] was 0.402 nM; that for `CCn1c(=O)n(CCCO)c(=O)c2c1nc(-c1ccc(O[C@H]3C[C@H](C)C3)nc1C)n2Cc1ccccc1` [Example 28] was 0.917 nM; that for `CCn1c(=O)n(CCCO)c(=O)c2c1nc(-c1ccc(OC3CCCCC3)nc1C)n2Cc1ccc(F)cc1` [Example 29] was 0.403 nM.
`Cc1nc(OC2CCC2)ccc1-c1nc2c(c(=O)n(CCCO)c(=O)n2C(C)C)n1Cc1ccccc1` [Example 30] gave an IC50 of 0.426 nM.
The value for `CCn1c(=O)n(CCCO)c(=O)c2c1nc(-c1ccc(OC3CCC3(C)C)nc1C)n2Cc1ccccc1` (stereo not drawn) [Example 31] was 0.431 nM.
The value for `CCn1c(=O)n(CCCO)c(=O)c2c1nc(-c1ccc(OC3CC(C)(C)C3)nc1C)n2Cc1ccccc1` [Example 32] was 0.46 nM; that for `Cc1nc(OC2CCC2)ccc1-c1nc2c(c(=O)n(CCCO)c(=O)n2C(C)C)n1Cc1ccc(F)cc1` [Example 33] was 0.477 nM; that for `CCn1c(=O)n(CCCO)c(=O)c2c1nc(-c1ccc(OC3CC(C)C3)nc1C)n2Cc1ccccc1` (stereo not drawn) [Example 34] was 0.485 nM.
The value for `CCn1c(=O)n(CCCO)c(=O)c2c1nc(-c1ccc(OC3CCC(C(F)(F)F)CC3)nc1C)n2Cc1ccc(F)cc1` (stereo not drawn) [Example 35] was 0.531 nM.
As for `CCn1c(=O)n(CCCO)c(=O)c2c1nc(-c1ccc(OC3CCC3)nc1C)n2Cc1ccc(Cl)cc1` [Example 36], the IC50 worked out at 0.551 nM. This IC50 and that of the compound before are within 1.5-fold of each other.
With `CCC(C)n1c(=O)n(CCCO)c(=O)c2c1nc(-c1ccc(OC3CCCC3)nc1C)n2Cc1ccccc1` (stereo not drawn) [Example 37] the figure was 0.603 nM.
As for `CCn1c(=O)n(CCCO)c(=O)c2c1nc(-c1ccc(OC3CCC3)nc1)n2Cc1ccc(Br)cc1` [Example 38], the IC50 amounted to 0.613 nM.
The value for `CCn1c(=O)n(CCCO)c(=O)c2c1nc(-c1cc(F)c(OC3CCC3)nc1C)n2Cc1ccccc1` [Example 39] was 0.628 nM; that for `CCn1c(=O)n(CCCO)c(=O)c2c1nc(-c1ccc(OC3CCC3C)nc1)n2Cc1ccc(Cl)cc1` (stereo not drawn) [Example 40] was 0.643 nM.
Turning to `CCn1c(=O)n(CCCO)c(=O)c2c1nc(-c1ccc(OC3CCC3C)nc1C)n2Cc1ccc(F)cc1` (stereo not drawn) [Example 41], the IC50 worked out at 0.688 nM.
With `CCC(C)n1c(=O)n(CCCO)c(=O)c2c1nc(-c1ccc(OC3CCC3)nc1C)n2Cc1ccccc1` (stereo not drawn) [Example 42] the figure was 0.713 nM.
With `Cc1nc(OC2CC(F)(F)C2)ccc1-c1nc2c(c(=O)n(CCCO)c(=O)n2C(C)C)n1Cc1ccccc1` [Example 43] the figure was 0.732 nM; with `CCn1c(=O)n(CCCO)c(=O)c2c1nc(-c1ccc(OC3CCCC3)nc1C)n2Cc1ccc(F)cc1` [Example 44], 0.743 nM.
`CCn1c(=O)n(CCCO)c(=O)c2c1nc(-c1ccc(OC3CC=CC3)nc1C)n2Cc1ccc(F)cc1` [Example 45] came in with an IC50 of 0.75 nM. This IC50 and that of the compound before are within 1.5-fold of each other.
The value for `CCn1c(=O)n(CCCO)c(=O)c2c1nc(-c1ccc(OC3CCC3)nc1)n2Cc1ccc(SC(F)(F)F)cc1` [Example 46] was 0.812 nM.

For the origin of these results see US11198696B2, “Substituted xanthines as inhibitors of transient receptor potential cation channel subfamily c, member 5 activity” (Boehringer Ingelheim International GmbH, priority 2018, dated 2021).
